Where a SMILES comes first, the peptide text is derived from it. The star is where a group is joined. Cbz = O=C(OCc1ccccc1)*; CH2F = FC*
Key:
[1] = tested on: GvHD effector cells (CD8+Vβ8.3+); assay: Mouse GvHD model: infiltration of GvHD effector cells in spleen and lungs by flow-cytometry; assay type: in vivo; conditions: GvHD mice, IDO inhibitor 2 mg/ml in drinking water from 6 days prior to MSC injection
Description: Acute GvHD was induced as previously described (T. Toubai et al. Blood, 119, 3844-3853 (2012)). Briefly, after lethal irradiation (11 Gy), recipient C57BL/6 male mice were transplanted with 1×10^6 purified CD8+ cells transgenic for a T-cell receptor specific for the male HY-antigen Uty (Matahari, Mh) from female Mh mice as GvHD effectors (FIG. 9A), 5×10^6 unfractionated bone marrow (BM) and 2×10^6 purified polyclonal CD4+ cells from female syngeneic donors (C57BL/6 wild-type donors). The control group received BM and purified CD4+ cells only. CD4+ and CD8+ T cells were obtained by positive selection using magnetic beads (Miltenyi Biotec Ltd, Bisley, UK). Live MSC (1×10^6) were injected i.v. at day +3, whilst apoMSC (1×10^6) were administered i.v. or i.p. at day +1, +3 and +6 from the transplant. Unless otherwise specified, animals were euthanized for analysis at day +7. The infiltration of GvHD effector cells was assessed by flow-cytometry and the percentage was expressed as proportion of cells in the lymphocyte gate, based on the physical characteristics of the cells.
In this model, the expansion of the T cells effecting GvHD (CD8+Vβ8.3+) can be precisely enumerated.

caspase 3 = assay: Caspase 3 activation in MSC cultured with activated PBMC (FRET-MSC); assay type: cell-based, human
Description: Luc-MSC were transfected with the pGL3-Control vector containing the SV40 promoter for the expression of Luc+ (Promega, Southampton, UK) or with pECFPDEVDR-Venus (Addgene, Teddington, UK) using electroporation (Gene Pulser Xcell, BioRad, Kidlington, UK). Cells were suspended in a total volume of 250 μl of buffer and electroporated in 0.4 cm gap cuvettes using 10 μg of DNA at 250 volts and […]. When pECFP-DEVDR-Venus was used, the donor fluorophore pECFP and the acceptor Venus-YFP were linked through the flexible linker DEVDR which is recognized and cleaved by the active form of caspase 3. In this system caspase 3 activity can be monitored through the analysis of the Förster Resonance Energy Transfer (FRET) between pECFP and Venus-YFP. […]
The following antibodies specific for murine molecules were used: anti-CD45 (FITC, Clone 30-F11) (eBiosciences Ltd, Hatfield, UK), anti-Vβ8.3 (FITC, Clone 1B3.3), antiCD8 (APC, Clone 53-6.7), antiCD4 (PE, Clone H129.19), anti-CD19 (APC-H7, Clone 1D3), anti-NK1.1 (PerCP-Cy5.5, Clone PK136) (BD Biosciences, Oxford, UK), anti-CD11b (PerCP-Cy5.5, clone M1/70), anti-CD11c (APC-Cy7, clone n418), anti-Ido1 (Alexa Fluo647, clone 2e2) (BioLegend, London, UK). […] All samples were acquired using BD FACS Canto II using the software FACS Diva and analyzed with Flow-jo software. […]

PGE2 = PGE2 ELISA in supernatant of MSC co-cultured with IBD patients' PBMC; assay type: cell-based, human; conditions: MSC (5×10^4) and patients PBMC (1×10^6), 24 hours, inhibitor 50 μM
Description: In particular MSC (5×10^4) and patients PBMC (1×10^6) were co-cultured for 24 hours, either with or without addition of a pan-caspase inhibibtor, Z-VAD-FMK (50 μM).
Supernatant was collected and PGE2 levels were measured by ELISA.

Cn1cc(C[C@@H](N)C(=O)O)c2ccccc21 [1-DMT, 1-methyl-D-tryptophan]
beneficial effect of MSC on Mh T cell infiltration [1]: much reduced

COC(=O)C[C@H](NC(=O)[C@H](C)NC(=O)[C@@H](NC(=O)OCc1ccccc1)C(C)C)C(=O)CF [Z-VAD-FMK] (Cbz-Val-Ala-Asp(OMe)-CH2F)
caspase activation in MSC induced by activated PBMC in presence of inhibitor (caspase 3): completely abrogated
PGE2 levels in supernatant (PGE2): largely reduce

From patent publication US20230293591A1, “Therapeutic Substances, their Preparation and Diagnostic Procedure” (KING'S COLLEGE LONDON, priority 2017, published 2023)
